Like-named read-outs stand apart in the source and are kept apart here.
Tested on: α7 integrin promoter
Assay: muscle cell-based assay: α7βgal+/− myoblasts/myotubes, LacZ reporter, β-galactosidase cleavage of FDG
Set-up: species or system mouse
Method: An α7 integrin null mouse was produced in which exon 1 of the gene encoding the α7 integrin was replaced by the LacZ reporter. In these mice, all the transcriptional regulatory elements of the α7 integrin promoter were retained, allowing β-galactosidase to report expression of 7 integrin. A primary myoblast cell line (designated α7βgal^+/−) isolated from 10 day old α7^+/− pups were analyzed for the ability of β-galactosidase to report α7 integrin expression. α7βgal^+/− myoblasts were differentiated and subjected to X-gal staining and western analysis (FIGS. 1A and 1B).
The activity of the α7 integrin promoter was measured by β-galactosidase cleavage of the non-fluorescent compound fluorescein di-β-D-galactopyranoside (FDG) to fluorescein. This assay was used to screen compound libraries to identify molecules that up-regulate α7 integrin expression in muscle.
Also evaluated was the effect of various isoforms of laminin and the ligand for α7β1 integrin on integrin expression. Positive hits were subjected to dose-response analysis, western analysis and a myostatin counterscreen (a negative regulator of muscle growth).

[1] = Mus musculus; Table 12; log of AC50, given with negative sign; unit of AC50 not given; read-out: Fit Log AC50 (converted)
[2] = Mus musculus; read-out: Max Response [%]
[3] = Table 12; fitted activity at zero concentration
[4] = Table 12 Compound data; concentration-response curve fit

| SMILES | AC50 [1] [µM] | Emax [2] [%] | Fit HillSlope (Table 12; curve fit) | Fit Zero Activity [%] [3] [%] | Fit Curve Class (Table 12; key not given) | Score [4] | Activity at 38.30 μM [%] ** (38.30 μM) [%] | Fit Infinite Activity [%] (Table 12; fitted activity at infinite concentration) | Activity at 1.530 μM [%] ** (1.530 μM) [%] | Activity at 0.307 μM [%] ** (0.307 μM) [%] | Curve Description | Fit Curve Class | Fit HillSlope | Fit Zero Activity [%] | Score | AC50 (Mus musculus, read-out: Fit Log AC50 (converted)) [µM] | Emax (Mus musculus, read-out: Max Response [%]) [%] |
| --- | --- | --- | --- | --- | --- | --- | --- | --- | --- | --- | --- | --- | --- | --- | --- | --- | --- |
| COc1ccc(NC(=O)c2cccc(N3C(=O)c4ccc(C(=O)Nc5ccc(OC)c(O)c5)cc4C3=O)c2)cc1O [Compound 13] | 4.47 | 95.6 | 3.9295 | −27.2857 | 1.1 | 84 |  |  |  |  |  |  |  |  |  |  |  |
| CCOc1ccc(S(=O)(=O)NCCC(=O)NCC(c2cccs2)N2CCOCC2)cc1 (stereo not drawn) [Compound 14] | 2.24 | 61.7 | 2.3332 | −21.9345 | 1.1 | 84 |  |  |  |  |  |  |  |  |  |  |  |
| CCOc1ccccc1NC(=O)c1cccc2c1C(=O)N(C1CCCCC1)C2 [Compound 15] | 3.16 | 73.6 | 1.6259 | −16.1195 | 1.1 | 84 |  |  |  |  |  |  |  |  |  |  |  |
| NC(=O)c1nsc(C(=O)N(c2ccccc2)C(C(=O)NCc2ccc(F)cc2)c2ccc(O)cc2)c1N (stereo not drawn) [Compound 16] | 2.24 | 75.2 | 1.3443 | −37.8568 | 1.1 | 84 |  |  |  |  |  |  |  |  |  |  |  |
| CCc1ccc(N(C(=O)c2snc(C(N)=O)c2N)C(C(=O)NC2CCCC2)c2ccco2)cc1 (stereo not drawn) [Compound 17] | 2.51 | 67.6 | 1.2475 | −24.7641 | 1.1 | 84 |  |  |  |  |  |  |  |  |  |  |  |
| COC(=O)C(=O)C/C(=N/Nc1ncnc2ccccc12)c1ccc(Cl)cc1 [Compound 18] | 10 |  | 4.9549 | 8.7984 | 2.1 | 84 | 1767.43 | 1760.36 |  |  |  |  |  |  |  |  |  |
| Cc1cc(NC(=O)c2ccc(Cl)cc2Cl)no1 [Compound 19] | 1.41 | 52.1 | 1.3437 | −28.8963 | 1.1 | 84 |  |  |  |  |  |  |  |  |  |  |  |
| CCOC(=O)Cc1csc(NC(=S)NC(=O)c2cc(OC)c(OC)c(OC)c2)n1 [Compound 20] | 3.55 | 82.9 | 2.3031 | −17.7204 | 1.1 | 84 |  |  |  |  |  |  |  |  |  |  |  |
| CC(C)CC1NC(=O)N(CC(=O)N2c3ccccc3NC(=O)C2(C)C)C1=O (stereo not drawn) [Compound 21] | 5.62 | 93.3 | 4.4495 | 1.1731 | 1.1 | 84 |  |  | 0 |  |  |  |  |  |  |  |  |
| COCCSc1ccccc1C(=O)Nc1cc(C)cc(C)c1 [Compound 22] | 4.47 | 82.9 | 4.9549 | −0.2899 | 1.1 | 84 |  |  | 0 | 0 |  |  |  |  |  |  |  |
| O=c1oc2c(-c3cccc(F)c3)cc(O)cc2s1 [Compound 23] | 3.98 | 98.9 | 2.9023 | 13.3122 | 1.1 | 84 |  |  |  |  |  |  |  |  |  |  |  |
| Cc1ccc(C2Nc3cccc4cccc(c34)N2)s1 [Compound 24] | 3.16 | 81.3 | 2.1211 | 5.7274 | 1.1 | 84 |  |  |  |  |  |  |  |  |  |  |  |
| COc1cc(=O)n(C)c2ccccc12 [Compound 25] | 2.24 | 63 | 1.6604 | −18.7854 | 1.1 | 84 |  |  |  |  |  |  |  |  |  |  |  |
| CCOC(=O)c1sc(=N)n(-c2ccc(OC)cc2)c1C [Compound 26] | 2 | 56.1 | 1.1 | −36.1807 | 1.1 | 84 |  |  |  |  |  |  |  |  |  |  |  |
| Cc1ccc(OCC(=O)N2CCN(S(=O)(=O)c3ccc4c(c3)OCCO4)CC2)c(C)c1 [Compound 27] | 2 | 53.8 | 2.2526 | −26.8995 | 1.1 | 83 |  |  |  |  |  |  |  |  |  |  |  |
| CC(NC(=O)c1cn(C)c2ccc(S(=O)(=O)N3CCCC3)cc2c1=O)c1ccccc1 (stereo not drawn) [Compound 28] | 2.82 | 54.7 | 2.5334 | −36.6914 | 1.1 | 83 |  |  |  |  |  |  |  |  |  |  |  |
| Cc1cc(NC(=O)CCC(=O)N(Cc2cccnc2)C(C(=O)NC(C)(C)C)c2ccccc2Cl)no1 (stereo not drawn) [Compound 29] | 3.98 | 54.9 | 1.7885 | −25.4387 | 1.1 | 83 |  |  |  |  |  |  |  |  |  |  |  |
| COc1cc(/C=C2/C(=N)N3C(SC)=NSC3=NC2=O)ccc1OC(=O)c1ccco1 [Compound 30] | 3.98 | 73.4 | 2.1876 | −19.157 | 1.1 | 83 |  |  |  |  |  |  |  |  |  |  |  |
| COc1ccccc1CNc1cc(C)ccn1 [Compound 31] | 2.51 | 62.3 | 1.9673 | −24.2621 | 1.1 | 83 |  |  |  |  |  |  |  |  |  |  |  |
| Cc1nn(C(C)(C)C)c(C)c1/C=N/OC(=O)Nc1ccc(Cl)c(Cl)c1 [Compound 32] |  |  |  |  |  |  |  |  |  |  | Complete | 1.1 | 2.1211 | −28.5623 | 83 | 2.82 | 59.8 |
| CCOC(=O)C1CCCN(C(=O)CNS(=O)(=O)c2ccc(Br)s2)C1 (stereo not drawn) [Compound 33] | 2 | 31.1 | 1.1 | −50.1655 | 1.1 | 82 |  |  |  |  |  |  |  |  |  |  |  |
| CCCCNC(=O)CSc1nnc(Cc2ccc(Cl)c(Cl)c2)c(O)n1 [Compound 34] | 1.41 | 75.4 | 1.8851 | 5.9015 | 1.2 | 65 |  |  |  |  |  |  |  |  |  |  |  |
| O=Cc1ccc(C(=O)OCC(=O)N2CCCC2)cc1 [Compound 35] | 2.51 | 71.8 | 3.132 | −0.1751 | 1.2 | 64 |  |  |  | 0 |  |  |  |  |  |  |  |
| CC(C)/N=C(\S)NN=C1CCCCCCCCCCC1 [Compound 36] | 3.16 | 78.6 | 1.4163 | 5.5 | 1.2 | 64 |  |  |  |  |  |  |  |  |  |  |  |
| COc1ccc(S(=O)(=O)N(NC2=NS(=O)(=O)c3ccccc32)C(=O)C(C)C)cc1 [Compound 37] | 2.51 | 72.9 | 2.4064 | −2.5935 | 1.2 | 64 |  |  |  |  |  |  |  |  |  |  |  |

From US10028992B2, “Methods of treating muscular dystrophy” (BOARD OF REGENTS OF THE NEVADA SYSTEM OF HIGHER EDUCATION …, priority 2012, dated 2018)
